# Experimental data reported in patent US9127037B2, “Crystalline rostafuroxin” (ROSTAQUO S.P.A., priority 2005, dated 2015).
# How the values were obtained:
# [1] = Solubility in water; type: physicochemical
# Procedure: A mixture of 5.00 grams of rostafuroxin (amorphous or any other crystalline form) and 50 ml of absolute ethanol was stirred until clearness. This solution was than added dropwise into 250 ml of water at room temperature under vigorous stirring at room temperature. At the end of addiction, the mixture was filtered and washed with deionized water. The product was dried under vacuum at 40° C. for 16 hours. The product contained 10.6% of water, corresponding to about 2.5 moles of water per mole of rostafuroxin (rostafuroxin.2.5H2O). Yield: 55%.
# [2] = tested on: Na—K pump; conditions: cultured renal cells, cited from earlier work
# [3] = tested on: rats made hypertensive by chronic infusion of ouabain; conditions: ouabain 50 microg/kg/day chronic infusion, per os 0.1-1 microg/kg/day for 4 weeks; cited from earlier work
# [4] = tested on: other receptors involved in blood pressure regulation or hormonal control; conditions: in vitro; cited from earlier work
# [5] = tested on: normotensive rats; conditions: cited from earlier work
# [6] = target: purified sodium, potassium ATPase enzyme (Na—K ATPase); conditions: in vitro; read-out: IC50, displacement of ouabain from its binding sites on purified Na—K ATPase; cited from earlier work
structure (smiles),measurement,setting,value
"CC12CCC(O)CC1CCC1C2CCC2(C)C(O)(c3ccoc3)CCC12O (stereo not drawn) [Form F, 17β-(3-furyl)-5β-androstane-3β,14β,17α-triol]",solubility in water,[1],low solubility
"C[C@@H]1O[C@@H](O[C@H]2C[C@@H](O)[C@]3(CO)[C@H]4[C@H](O)C[C@]5(C)[C@@H](C6=CC(=O)OC6)CC[C@]5(O)[C@@H]4CC[C@]3(O)C2)[C@H](O)[C@H](O)[C@H]1O [ouabain, reference compound]",concentration that stimulated the Na—K pump at Vmax,[2]; incubation for 5 days,10^−10 to 10^−8 M
"C[C@]12CC[C@H](O)C[C@H]1CC[C@@H]1[C@@H]2CC[C@]2(C)[C@@](O)(c3ccoc3)CC[C@]12O [rostafuroxin, 17β-(3-furyl)-5β-androstane-3β,14β,17α-triol]",increase in blood pressure caused by ouabain,[3],abolished
same,increase in renal Na—K ATPase activity caused by ouabain,[3],abolished
same,concentrations that abolished the ouabain-dependent increase in the Na—K pump rate,[2],10^−14 to 10^−9 M
same,stimulation of the Na—K pump at Vmax (same effect as ouabain),[2],showed the same effect at micromolar concentration
same,interaction with other receptors involved in blood pressure regulation or hormonal control,[4],without interacting
same,blood pressure,[5],did not affect
same,renal Na—K ATPase activity,[5],did not affect
same,IC50,[6],1.7 µM
